Laboratory results: patent US20160264593A1 (priority 2013, published 2016)
Read-outs that look alike come from different tables or passages of the source.

Assay: Pharmacokinetic study of 157 (and metabolite endothal) in SD rats, iv and po; plasma, liver, brain
Type: in vivo
Conditions: for Tmax: read-out: Tmax; for MRT last: read-out: MRT (0-t); for half-life: read-out: T1/2 (converted); for concentration at 2 h / 157 brain concentration: 2 hr
Description: The blood, liver and brain tissue samples were collected at predetermined times from rats. […] Compound were diluted shortly before use in 4% sodium bicarbonate for sterile injection (this is the standard pediatric solution of NaHCO3 with a pH of about 8.5).
Compound 153 was freshly prepared by diluting the drugs shortly before use in 4% sodium bicarbonate for sterile injection (this is the standard pediatric solution of NaHCO3 with a pH of about 8.5). The final concentrations of 153 solutions were 0.25 mg/mL. The 153 solutions were administered via iv or po route at dose volume of 5 ml/kg according to the latest body weight. Compound 157 was freshly prepared by diluting the drugs shortly before use in 4% sodium bicarbonate for sterile injection (this is the standard pediatric solution of NaHCO3 with a pH of about 8.5). The final concentrations of […] solutions were 0.3 mg/mL. The 157 solutions were administered via iv or po route at dose volume of 5 ml/kg according to the latest body weight.
Twelve (12) female SD rats per group were dosed by iv with 153 or 157. The rats were fasted overnight prior to dosing, with free access to water. Foods were withheld for 2 hours post-dose. Blood, liver and brain tissue samples in two animals each group were collected at each time point, within 10% of the scheduled time for each time point. Two extra animals were used for analytic method development.
Blood (>0.3 mL) were collected via aorta abdominalis in anaesthetic animals into tubes containing heparin at 15 min, 1, 2, 6, 10 and 24 hours after iv administration. Liver and brain tissues were collected immediately after animal death. The liver and brain tissues were excised and rinsed with cold saline to avoid blood residual. Upon collection, each sample was placed on ice and the blood samples were subsequently centrifuged (4° C., 11000 rpm, 5 min) to separate plasma. The obtained plasma, liver and brain tissue samples were stored at −70° C. until LC-MS/MS analysis.
Two (2) female SD rats per group were dosed by po with 153 or 157. The rats were fasted overnight prior to dosing, with free access to water. Foods were withheld for 2 hours post-dose. Blood samples (>0.3 mL) were collected via aorta abdominalis in anaesthetic animals into tubes containing heparin at 30 min, 1, 2, 6, 10 and 24 hours after po administration.
To each sample, 30 μL IS-D (for blank samples, 20 μL acetonitrile:water (1:1) was added) and 300 μl acetonitrile was added. The sample mixture was vortexed for approximately 3 min. After centrifugation at 10000 rpm for 5 min at 4° C., 100 μL of the upper layer was transferred to a new tube and added 200 μL 0.4% formic acid in water (pH6.0). The mixture was vortexed for approximately 3 min before injected onto the LC/MS/MS system for analysis.
On the day of the assay, the frozen liver and brain samples were thawed unassisted at room temperature. An about 200 mg weighed sample of each thawed tissue was placed into a plastic tube with water (0.6 mL) to facilitate homogenization. Tissue processing was conducted using a homogenizer for approximately 1 min, 100 μl homogenate was transferred into a fresh Eppendorf tube. To each tube, 50 μL IS-D was added and mixed. Then 500 μl acetonitrile was added and the sample mixture was vortexed for approximately 3 min. After centrifugation at 10000 rpm for 5 min at 4° C., 100 μL of the upper layer was transferred to a new tube and evaporate the supernatant to dryness at 35° C. Reconstitute the residue with 200 μL of 0.4% formic acid in water (pH 6.0), and vortex for 3 min, submit for LC-MS/MS analysis.
Frozen unknown plasma samples were completely thawed at room temperature and vortexed thoroughly. With a pipette, 50 μL of plasma was transferred into a 2.0 mL Eppendorf tube. 50 μL of 0.1N HCl and 800 μL ethyl acetate were added into each sample. The sample mixture was vortexed for approximately 3 min.

[1] = female, Sprague-Dawley (SD), rat, in vivo, iv, 1.5 mg/kg, 157 in Brain, iv 1.5 mg/kg, Mean
[2] = female, Sprague-Dawley (SD), rat, in vivo, iv, 1.5 mg/kg, 157 in Brain, iv 1.5 mg/kg, rat 1
[3] = female, Sprague-Dawley (SD), rat, in vivo, iv, 1.5 mg/kg, 157 in Brain, iv 1.5 mg/kg, rat 2
[4] = female, Sprague-Dawley (SD), rat, in vivo, iv, 1.5 mg/kg, 157 in Liver, iv 1.5 mg/kg, Mean
[5] = female, Sprague-Dawley (SD), rat, in vivo, iv, 1.5 mg/kg, 157 in Liver, iv 1.5 mg/kg, rat 1
[6] = female, Sprague-Dawley (SD), rat, in vivo, iv, 1.5 mg/kg, 157 in Liver, iv 1.5 mg/kg, rat 2
[7] = female, Sprague-Dawley (SD), rat, in vivo, iv, 1.5 mg/kg, iv 1.5 mg/kg, Mean, read-out: 157 plasma concentration
[8] = female, Sprague-Dawley (SD), rat, in vivo, iv, 1.5 mg/kg, iv 1.5 mg/kg, Rat 1, read-out: 157 liver concentration
[9] = female, Sprague-Dawley (SD), rat, in vivo, iv, 1.5 mg/kg, iv 1.5 mg/kg, Rat 1, read-out: 157 plasma concentration
[10] = female, Sprague-Dawley (SD), rat, in vivo, iv, 1.5 mg/kg, iv 1.5 mg/kg, Rat 2, read-out: 157 liver concentration
[11] = female, Sprague-Dawley (SD), rat, in vivo, iv, 1.5 mg/kg, iv 1.5 mg/kg, Rat 2, read-out: 157 plasma concentration
[12] = female, Sprague-Dawley (SD), rat, in vivo, po, 1.5 mg/kg, 157 in plasma, PO 1.5 mg/kg, rat 2
[13] = female, Sprague-Dawley (SD), rat, in vivo, po, 1.5 mg/kg, PO 1.5 mg/kg, Mean, read-out: 157 plasma concentration
[14] = female, Sprague-Dawley (SD), rat, in vivo, po, 1.5 mg/kg, PO 1.5 mg/kg, Rat 1, read-out: 157 plasma concentration
[15] = female, Sprague-Dawley (SD), rat, in vivo, po, 1.5 mg/kg, PO 1.5 mg/kg, Rat 2, read-out: 157 plasma concentration

## CCCCCCCOC(=O)C1C2CCC(O2)C1C(=O)N1CCN(C)CC1 (centres unmarked) [Compound 157, 3-(4-Methylpiperazine-1-carbonyl)-7-oxa-bicyclo[2,2,1]heptane-2-carboxylic acid heptyl ester]
female, SD, rat, in vivo, iv, 1.5 mg/kg, iv 1.5 mg/kg, Rat 2, read-out: 157 liver concentration
  concentration at 1 h: 17.6 ng/g
female, SD, rat, in vivo, po, 1.5 mg/kg, 157 po 1.5 mg/kg, read-out: AUC of 157 in plasma
  AUC: 3.2 ng·h/mL
female, SD, rat, in vivo, po, 1.5 mg/kg, 157 po 1.5 mg/kg, read-out: Cmax of 157 in plasma
  Cmax: 6.14 ng/mL
female, SD, rat, in vivo, 157 iv 1.5 mg/kg, read-out: AUClast of 157 in plasma
  AUC(0-t): 47.2 ng·h/mL
female, SD, rat, in vivo, 157 po vs iv 1.5 mg/kg, read-out: BA (bioavailability) of 157
  bioavailability: 6.98%
female, Sprague-Dawley (SD), in vivo, 157 in plasma, PO 1.5 mg/kg, rat 2
  Tmax: 30 min
female, Sprague-Dawley (SD), rat, in vivo, iv, 1.5 mg/kg, 157 in Brain, iv 1.5 mg/kg, Mean, read-out: Cmax
  Cmax: 60 ng/g
[1]
  MRT last: 18.8 min
  half-life: 9.72 min
female, Sprague-Dawley (SD), rat, in vivo, iv, 1.5 mg/kg, 157 in Brain, iv 1.5 mg/kg, rat 1, read-out: Cmax
  Cmax: 60 ng/g
[2]
  MRT last: 18.3 min
  half-life: 9.18 min
female, Sprague-Dawley (SD), rat, in vivo, iv, 1.5 mg/kg, 157 in Brain, iv 1.5 mg/kg, rat 2, read-out: Cmax
  Cmax: 60 ng/g
[3]
  MRT last: 19.4 min
  half-life: 10.2 min
female, Sprague-Dawley (SD), rat, in vivo, iv, 1.5 mg/kg, 157 in Liver, iv 1.5 mg/kg, Mean, read-out: Cmax
  Cmax: 297 ng/g
[4]
  MRT last: 35.3 min
  half-life: 48.8 min
female, Sprague-Dawley (SD), rat, in vivo, iv, 1.5 mg/kg, 157 in Liver, iv 1.5 mg/kg, rat 1, read-out: Cmax
  Cmax: 337 ng/g
[5]
  MRT last: 31.9 min
  half-life: 27.3 min
female, Sprague-Dawley (SD), rat, in vivo, iv, 1.5 mg/kg, 157 in Liver, iv 1.5 mg/kg, rat 2, read-out: Cmax
  Cmax: 257 ng/g
[6]
  MRT last: 38.8 min
  half-life: 70.2 min
[7]
  concentration at 0.25 h: 115 ng/mL
  concentration at 1 h: 3.12 ng/mL
  concentration at 2 h: 0.524 ng/mL
[8]
  concentration at 0.25 h: 337 ng/g
  concentration at 2 h: 6.4 ng/g
[9]
  concentration at 0.25 h: 116 ng/mL
  concentration at 1 h: 2.67 ng/mL
  concentration at 2 h: 0.491 ng/mL
[10]
  concentration at 0.25 h: 257 ng/g
  concentration at 2 h: 9.72 ng/g
[11]
  concentration at 0.25 h: 114 ng/mL
  concentration at 1 h: 3.57 ng/mL
  concentration at 2 h: 0.556 ng/mL
female, Sprague-Dawley (SD), rat, in vivo, iv, 1.5 mg/kg, iv 1.5 mg/kg, Mean, read-out: 157 liver concentration
  concentration at 2 h: 8.06 ng/g
[12]
  AUC(0-inf): 3 ng·h/mL
  MRT last: 54.2 min
  half-life: 22.2 min
female, Sprague-Dawley (SD), rat, in vivo, po, 1.5 mg/kg, 157 in plasma, PO 1.5 mg/kg, rat 2, read-out: AUC
  AUC: 3 ng·h/mL
female, Sprague-Dawley (SD), rat, in vivo, po, 1.5 mg/kg, 157 in plasma, PO 1.5 mg/kg, rat 2, read-out: Cmax
  Cmax: 6.35 ng/mL
female, Sprague-Dawley (SD), rat, in vivo, po, 1.5 mg/kg, PO 1.5 mg/kg, Mean
  concentration at 0.5 h: 6.14 ng/mL
female, Sprague-Dawley (SD), rat, in vivo, po, 1.5 mg/kg, PO 1.5 mg/kg, Rat 1
  concentration at 0.5 h: 5.92 ng/mL
female, Sprague-Dawley (SD), rat, in vivo, po, 1.5 mg/kg, PO 1.5 mg/kg, Rat 2
  concentration at 0.5 h: 6.35 ng/mL
[13]
  concentration at 1 h: 1.37 ng/mL
  concentration at 2 h: 0.249 ng/mL
[14]
  concentration at 1 h: 1.48 ng/mL
  concentration at 2 h: 0.303 ng/mL
[15]
  concentration at 1 h: 1.26 ng/mL
  concentration at 2 h: 0.194 ng/mL
female, Sprague-Dawley (SD), rat, in vivo, 157 in Liver, iv 1.5 mg/kg, Mean
  Tmax: 15 min
Iv 1.5 mg/kg, Rat 1
  157 brain concentration: BLQ
Iv 1.5 mg/kg, Rat 2
  157 brain concentration: BLQ
Iv 1.5 mg/kg, 10 hr, Rat 2
  157 liver concentration: BLQ
